Measured values: PubChem BioAssay (NCI)
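Dose response: 5 concentrations. Exposure: 48 h. Format: 96-well plates. Endpoint: linear interpolation; highest concentration if not reached. GI50 = concentration required for 50% inhibition of growth. Definition used: TGI = concentration required for complete inhibition of growth.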

What was measured:
Assay in all cases: inhibition of tumour cell growth, NCI panel, 48 h
[1] = test system: SF-295 CNS
[2] = test system: M14 melanoma
[3] = test system: NCI-H460 lung
[4] = test system: OVCAR-3 ovarian
[5] = test system: BT-549 breast
[6] = test system: MDA-MB-231 breast
[7] = test system: NCI-H226 lung
[8] = test system: LOX IMVI melanoma
[9] = test system: CAKI-1 renal
[10] = test system: HOP-92 NSCLC
[11] = test system: SK-OV-3 ovarian
[12] = test system: HS 578T breast
[13] = test system: A498 renal
[14] = test system: HOP-62 NSCLC
[15] = test system: UO-31 renal
[16] = test system: UACC-62 melanoma
[17] = test system: RXF 393 renal
[18] = test system: SK-MEL-2 melanoma
[19] = test system: UACC-257 melanoma
[20] = test system: NCI-H23 lung
[21] = test system: SK-MEL-5 melanoma
[22] = test system: HCT-116 colon
[23] = test system: TK-10 renal
[24] = test system: 786-0 renal
[25] = test system: SK-MEL-28 melanoma
[26] = test system: MALME-3M melanoma
[27] = test system: NCI/ADR-RES ovarian
[28] = test system: A549 NSCLC
[29] = test system: SR leukemia
[30] = test system: HCC-2998 colon
[31] = test system: CCRF-CEM leukemia
[32] = test system: OVCAR-8 ovarian
[33] = test system: PC-3 prostate
[34] = test system: HCT-15 colon
[35] = test system: IGROV1 ovarian
[36] = test system: OVCAR-5 ovarian
[37] = test system: SF-268 CNS
[38] = test system: ACHN renal
[39] = test system: SN12C renal
[40] = test system: U251 CNS
[41] = test system: DU-145 prostate
[42] = test system: KM12 colon
[43] = test system: MDA-MB-435
[44] = test system: EKVX NSCLC
[45] = test system: SW-620 colon
[46] = test system: T-47D breast
[47] = test system: SF-539 CNS
[48] = test system: MCF7 breast
[49] = test system: SNB-19 CNS
[50] = test system: HT29 colon
[51] = test system: SNB-75 CNS
[52] = test system: HL-60(TB) leukemia
[53] = test system: COLO 205 colon
[54] = test system: MOLT-4 leukemia
[55] = test system: K-562 leukemia
[56] = test system: NCI-H522 lung
[57] = test system: OVCAR-4 ovarian

## O=C(Nc1ccc(Cl)cc1)Nc1nc2ccc([N+](=O)[O-])cc2s1
[1]
  GI50: 0.728 µM
  TGI: 2.12 µM
[2]
  GI50: 0.815 µM
  TGI: 2.24 µM
[3]
  GI50: 0.468 µM
  TGI: 1.7 µM
[4]
  GI50: 0.435 µM
  TGI: 1.59 µM
[5]
  GI50: 0.593 µM
  TGI: 1.76 µM
[6]
  GI50: 1.12 µM
  TGI: 2.92 µM
[7]
  GI50: 0.777 µM
  TGI: 2.46 µM
[8]
  GI50: 0.727 µM
  TGI: 2.06 µM
[9]
  GI50: 0.653 µM
  TGI: 2.51 µM
[10]
  GI50: 0.187 µM
  TGI: 0.628 µM
[11]
  GI50: 0.843 µM
  TGI: 4.51 µM
[12]
  GI50: 1.17 µM
  TGI: 3.87 µM
[13]
  GI50: 0.275 µM
  TGI: 0.996 µM
[14]
  GI50: 1.19 µM
  TGI: 3.13 µM
[15]
  GI50: 0.545 µM
  TGI: 2.45 µM
[16]
  GI50: 0.485 µM
  TGI: 2.14 µM
[17]
  GI50: 0.587 µM
  TGI: 1.94 µM
[18]
  GI50: 0.554 µM
  TGI: 2.32 µM
[19]
  GI50: 0.639 µM
  TGI: 2.79 µM
[20]
  GI50: 0.332 µM
  TGI: 1.26 µM
[21]
  GI50: 0.365 µM
  TGI: 1.33 µM
[22]
  GI50: 0.346 µM
  TGI: 1.27 µM
[23]
  GI50: 0.889 µM
  TGI: 4.32 µM
[24]
  GI50: 0.776 µM
  TGI: 2.39 µM
[25]
  GI50: 0.663 µM
  TGI: 2.02 µM
[26]
  GI50: 0.467 µM
  TGI: 1.87 µM
[27]
  GI50: 0.88 µM
  TGI: 2.28 µM
[28]
  GI50: 0.837 µM
  TGI: 3.43 µM
[29]
  GI50: 0.566 µM
  TGI: 2.28 µM
[30]
  GI50: 0.59 µM
  TGI: 2.08 µM
[31]
  GI50: 0.393 µM
  TGI: 1.85 µM
[32]
  GI50: 1.27 µM
  TGI: 4.7 µM
[33]
  GI50: 0.38 µM
  TGI: 1.63 µM
[34]
  GI50: 0.675 µM
  TGI: 2.11 µM
[35]
  GI50: 1.08 µM
  TGI: 2.68 µM
[36]
  GI50: 1.85 µM
  TGI: 4.45 µM
[37]
  GI50: 1.09 µM
  TGI: 3.46 µM
[38]
  GI50: 0.751 µM
  TGI: 2.29 µM
[39]
  GI50: 0.647 µM
  TGI: 2.59 µM
[40]
  GI50: 0.606 µM
  TGI: 2.57 µM
[41]
  GI50: 1.11 µM
  TGI: 5.15 µM
[42]
  GI50: 0.642 µM
  TGI: 2.31 µM
[43]
  GI50: 0.729 µM
  TGI: 2.2 µM
[44]
  GI50: 0.886 µM
  TGI: 2.66 µM
[45]
  GI50: 0.84 µM
  TGI: 2.34 µM
[46]
  GI50: 0.308 µM
  TGI: 1.28 µM
[47]
  GI50: 0.915 µM
  TGI: 2.35 µM
[48]
  GI50: 0.46 µM
  TGI: 1.91 µM
[49]
  GI50: 0.735 µM
  TGI: 2.75 µM
[50]
  GI50: 2.57 µM
  TGI: 7.14 µM
[51]
  GI50: 0.952 µM
  TGI: 3.51 µM
[52]
  GI50: 0.604 µM
  TGI: 2.02 µM
[53]
  GI50: 1.7 µM
  TGI: 3.29 µM
[54]
  GI50: 0.438 µM
  TGI: 1.98 µM
[55]
  GI50: 0.375 µM
  TGI: 1.55 µM
[56]
  GI50: 0.378 µM
  TGI: 2.89 µM
[57]
  GI50: 0.573 µM
  TGI: 3.13 µM
